According to ChEMBL document CHEMBL1139122, “Structure-activity relationship (SAR) studies of quinoxalines as novel HCV NS5B RNA-dependent RNA polymerase inhibitors” (Bioorg Med Chem Lett, 2007):

Assay: Inhibition of HCV NS5B RdRp
Design: species or system Hepacivirus hominis

**Q.** For `COc1cccc(-c2nc3ccc(C(=O)O)cc3nc2-c2cccc(OC)c2)c1`, which IC50 is on record?
**A.** > 100 µM

**Q.** For `O=C(N[C@@H](Cc1c[nH]c2ccc(O)cc12)C(=O)O)c1ccc2nc(-c3ccccc3)c(C3CCCCC3)nc2c1`, which IC50 is on record?
**A.** 0.6 µM

**Q.** Which IC50 does the source give for `O=C(N[C@@H](Cc1c[nH]c2ccc(O)cc12)C(=O)O)c1ccc2nc(-c3ccc(F)cc3)c(-c3ccc(F)cc3)nc2c1` here?
**A.** 1.3 µM

**Q.** For `O=C(O)c1ccc2nc(-c3ccc(F)cc3)c(-c3ccc(F)cc3)nc2c1`, which IC50 is on record?
**A.** 5.5 µM

**Q.** For `CCOC(=O)/C=C/c1ccc(NC(=O)C2(NC(=O)c3ccc4nc(-c5ccc(F)cc5)c(C5CCCCC5)nc4c3)CCC2)cc1`, which IC50 is on record?
**A.** 1.3 µM

**Q.** With `O=C(N[C@@H](Cc1c[nH]c2ccccc12)C(=O)O)c1ccc2nc(-c3ccco3)c(-c3ccco3)nc2c1` as the compound, how does the IC50 read?
**A.** 33 µM

**Q.** With `COC(=O)[C@H](Cc1c[nH]c2ccccc12)NC(=O)c1ccc2nc(-c3ccccn3)c(-c3ccccn3)nc2c1` as the compound, how does the IC50 read?
**A.** > 100 µM

**Q.** For `Cc1ccc(-c2nc3ccc(C(=O)N[C@@H](Cc4c[nH]c5ccc(O)cc45)C(=O)O)cc3nc2-c2ccc(C)cc2)cc1`, which IC50 is on record?
**A.** 6.1 µM

**Q.** Which IC50 does the source give for `O=C(O)/C=C/c1ccc(NC(=O)c2ccc3nc(C4CCCCC4)c(-c4ccccc4)nc3c2)cc1` here?
**A.** 1.3 µM

**Q.** With `COC(=O)[C@H](Cc1c[nH]c2ccc(O)cc12)NC(=O)c1ccc2nc(-c3cccc(OC)c3)c(-c3cccc(OC)c3)nc2c1` as the compound, how does the IC50 read?
**A.** > 100 µM

**Q.** For `O=C(O)c1ccc2nc(-c3ccccn3)c(-c3ccccn3)nc2c1`, which IC50 is on record?
**A.** > 100 µM

**Q.** Which IC50 does the source give for `O=C(N[C@@H](Cc1c[nH]c2ccccc12)C(=O)O)c1ccc2nc(-c3ccccn3)c(-c3ccccn3)nc2c1` here?
**A.** > 100 µM

**Q.** For `O=C(N[C@@H](Cc1c[nH]c2ccc(O)cc12)C(=O)O)c1ccc2nc(-c3ccc(F)cc3)c(C3CCCCC3)nc2c1`, which IC50 is on record?
**A.** 4.6 µM

**Q.** Which IC50 does the source give for `CCOC(=O)/C=C/c1ccc(NC(=O)C2(NC(=O)c3ccc4nc(C5CCCCC5)c(-c5ccc(F)cc5)nc4c3)CCC2)cc1` here?
**A.** 5.1 µM

**Q.** With `COC(=O)[C@H](Cc1c[nH]c2ccc(O)cc12)NC(=O)c1ccc2nc(-c3ccc(C)cc3)c(-c3ccc(C)cc3)nc2c1` as the compound, how does the IC50 read?
**A.** 49 µM

**Q.** With `O=C(N[C@@H](Cc1c[nH]c2ccc(O)cc12)C(=O)O)c1ccc2nc(-c3ccco3)c(-c3ccco3)nc2c1` as the compound, how does the IC50 read?
**A.** 16 µM

**Q.** With `CCOC(=O)/C=C/c1ccc(NC(=O)C2(NC(=O)c3ccc4nc(-c5ccc(F)cc5)c(-c5ccc(F)cc5)nc4c3)CCCC2)cc1` as the compound, how does the IC50 read?
**A.** > 100 µM

**Q.** Which IC50 does the source give for `COC(=O)[C@H](Cc1c[nH]c2ccccc12)NC(=O)c1ccc2nc(-c3cccc(OC)c3)c(-c3cccc(OC)c3)nc2c1` here?
**A.** > 100 µM

**Q.** Which IC50 does the source give for `O=C(O)/C=C/COc1ccc2[nH]cc(C[C@H](NC(=O)c3ccc4nc(-c5ccc(F)cc5)c(-c5ccc(F)cc5)nc4c3)C(=O)O)c2c1` here?
**A.** 2.2 µM

**Q.** With `O=C(N[C@@H](Cc1c[nH]c2ccccc12)C(=O)O)c1ccc2nc(C3CCCCC3)c(-c3ccccc3)nc2c1` as the compound, how does the IC50 read?
**A.** 3.7 µM

**Q.** Which IC50 does the source give for `O=C(N[C@@H](Cc1c[nH]c2ccccc12)C(=O)O)c1ccc2nc(C3CCCCC3)c(-c3ccc(F)cc3)nc2c1` here?
**A.** 3.4 µM

**Q.** Which IC50 does the source give for `O=C(O)c1ccc2nc(-c3ccco3)c(-c3ccco3)nc2c1` here?
**A.** 17 µM

**Q.** For `O=C(N[C@@H](Cc1c[nH]c2ccccc12)C(=O)O)c1ccc2nc(-c3ccccc3)c(C3CCCCC3)nc2c1`, which IC50 is on record?
**A.** 1.8 µM

**Q.** With `COC(=O)[C@H](Cc1c[nH]c2ccccc12)NC(=O)c1ccc2nc(-c3ccc(F)cc3)c(-c3ccc(F)cc3)nc2c1` as the compound, how does the IC50 read?
**A.** > 100 µM

**Q.** For `COC(=O)[C@H](Cc1c[nH]c2ccccc12)NC(=O)c1ccc2nc(-c3ccccc3)c(-c3ccccc3)nc2c1`, which IC50 is on record?
**A.** > 100 µM

**Q.** With `O=C(Nc1ccc(-c2ccc(C(=O)O)o2)cc1)c1ccc2nc(C3CCCCC3)c(-c3ccccc3)nc2c1` as the compound, how does the IC50 read?
**A.** 1.8 µM

**Q.** For `O=C(N[C@@H](Cc1c[nH]c2ccc(O)cc12)C(=O)O)c1ccc2nc(C3CCCCC3)c(-c3ccc(F)cc3)nc2c1`, which IC50 is on record?
**A.** 4.1 µM

**Q.** With `CCOC(=O)/C=C/c1ccc(NC(=O)c2ccc3nc(-c4ccc(F)cc4)c(-c4ccc(F)cc4)nc3c2)cc1` as the compound, how does the IC50 read?
**A.** > 100 µM

**Q.** For `O=C(Nc1ccc(-c2ccc(C(=O)O)o2)cc1)c1ccc2nc(-c3ccccc3)c(C3CCCCC3)nc2c1`, which IC50 is on record?
**A.** 1.6 µM

**Q.** With `COC(=O)COc1ccc2[nH]cc(C[C@H](NC(=O)c3ccc4nc(-c5ccc(F)cc5)c(-c5ccc(F)cc5)nc4c3)C(=O)OC)c2c1` as the compound, how does the IC50 read?
**A.** 100 µM

**Q.** With `O=C(N[C@@H](Cc1c[nH]c2ccc(O)cc12)C(=O)O)c1ccc2nc(C3CCCCC3)c(-c3ccccc3)nc2c1` as the compound, how does the IC50 read?
**A.** 5 µM

**Q.** For `O=C(O)/C=C/c1ccc(NC(=O)c2ccc3nc(-c4ccc(F)cc4)c(-c4ccc(F)cc4)nc3c2)cc1`, which IC50 is on record?
**A.** 17 µM

**Q.** With `O=C(N[C@@H](Cc1c[nH]c2ccccc12)C(=O)O)c1ccc2nc(-c3ccc(F)cc3)c(C3CCCCC3)nc2c1` as the compound, how does the IC50 read?
**A.** 1.6 µM

**Q.** For `NC(=O)COc1ccc2[nH]cc(C[C@H](NC(=O)c3ccc4nc(-c5ccc(F)cc5)c(-c5ccc(F)cc5)nc4c3)C(=O)O)c2c1`, which IC50 is on record?
**A.** 3.2 µM

**Q.** For `O=C(O)/C=C/c1ccc(NC(=O)C2(NC(=O)c3ccc4nc(-c5ccc(F)cc5)c(-c5ccc(F)cc5)nc4c3)CCC2)cc1`, which IC50 is on record?
**A.** 0.69 µM

**Q.** Which IC50 does the source give for `COC(=O)[C@H](Cc1c[nH]c2ccc(OCC(N)=O)cc12)NC(=O)c1ccc2nc(-c3ccc(F)cc3)c(-c3ccc(F)cc3)nc2c1` here?
**A.** 8.6 µM

**Q.** With `COC(=O)[C@H](Cc1c[nH]c2ccc(O)cc12)NC(=O)c1ccc2nc(-c3ccco3)c(-c3ccco3)nc2c1` as the compound, how does the IC50 read?
**A.** 26 µM

**Q.** With `O=C(O)c1ccc2nc(-c3ccccc3)c(-c3ccccc3)nc2c1` as the compound, how does the IC50 read?
**A.** 79 µM

**Q.** For `O=C(O)COc1ccc2[nH]cc(C[C@H](NC(=O)c3ccc4nc(-c5ccc(F)cc5)c(-c5ccc(F)cc5)nc4c3)C(=O)O)c2c1`, which IC50 is on record?
**A.** 1.7 µM

**Q.** Which IC50 does the source give for `O=C(O)/C=C/c1ccc(NC(=O)c2ccc3nc(-c4ccc(F)cc4)c(C4CCCCC4)nc3c2)cc1` here?
**A.** 4.6 µM

**Q.** Which IC50 does the source give for `COC(=O)/C=C/COc1ccc2[nH]cc(C[C@H](NC(=O)c3ccc4nc(-c5ccc(F)cc5)c(-c5ccc(F)cc5)nc4c3)C(=O)OC)c2c1` here?
**A.** 53 µM

**Q.** For `O=C(N[C@@H](Cc1c[nH]c2ccccc12)C(=O)O)c1ccc2nc(-c3ccccc3)c(-c3ccccc3)nc2c1`, which IC50 is on record?
**A.** 15 µM

**Q.** For `O=C(N[C@@H](Cc1c[nH]c2ccccc12)C(=O)O)c1ccc2nc(-c3ccc(F)cc3)c(-c3ccc(F)cc3)nc2c1`, which IC50 is on record?
**A.** 1.9 µM

**Q.** With `O=C(O)/C=C/c1ccc(NC(=O)c2ccc3nc(C4CCCCC4)c(-c4ccc(F)cc4)nc3c2)cc1` as the compound, how does the IC50 read?
**A.** 4.1 µM

**Q.** With `CCOC(=O)/C=C/c1ccc(NC(=O)C2(NC(=O)c3ccc4nc(-c5ccc(F)cc5)c(-c5ccc(F)cc5)nc4c3)CCC2)cc1` as the compound, how does the IC50 read?
**A.** 37 µM

**Q.** With `COC(=O)[C@H](Cc1c[nH]c2ccc(O)cc12)NC(=O)c1ccc2nc(-c3ccccc3)c(-c3ccccc3)nc2c1` as the compound, how does the IC50 read?
**A.** 72 µM

**Q.** Which IC50 does the source give for `COc1cccc(-c2nc3ccc(C(=O)N[C@@H](Cc4c[nH]c5ccc(O)cc45)C(=O)O)cc3nc2-c2cccc(OC)c2)c1` here?
**A.** 15 µM

**Q.** With `COC(=O)[C@H](Cc1c[nH]c2ccccc12)NC(=O)c1ccc2nc(-c3ccco3)c(-c3ccco3)nc2c1` as the compound, how does the IC50 read?
**A.** > 100 µM

**Q.** Which IC50 does the source give for `COC(=O)[C@H](Cc1c[nH]c2ccc(O)cc12)NC(=O)c1ccc2nc(-c3ccc(F)cc3)c(-c3ccc(F)cc3)nc2c1` here?
**A.** 5.5 µM

**Q.** Which IC50 does the source give for `COC(=O)[C@H](Cc1c[nH]c2ccccc12)NC(=O)c1ccc2nc(-c3ccc(C)cc3)c(-c3ccc(C)cc3)nc2c1` here?
**A.** > 100 µM

**Q.** Which IC50 does the source give for `Cc1ccc(-c2nc3ccc(C(=O)O)cc3nc2-c2ccc(C)cc2)cc1` here?
**A.** 40 µM

**Q.** For `O=C(O)/C=C/c1ccc(NC(=O)C2(NC(=O)c3ccc4nc(-c5ccc(F)cc5)c(-c5ccc(F)cc5)nc4c3)CCCC2)cc1`, which IC50 is on record?
**A.** 1.2 µM

**Q.** For `COc1cccc(-c2nc3ccc(C(=O)N[C@@H](Cc4c[nH]c5ccccc45)C(=O)O)cc3nc2-c2cccc(OC)c2)c1`, which IC50 is on record?
**A.** > 100 µM

**Q.** Which IC50 does the source give for `O=C(N[C@@H](Cc1c[nH]c2ccc(O)cc12)C(=O)O)c1ccc2nc(-c3ccccc3)c(-c3ccccc3)nc2c1` here?
**A.** 11 µM
